Here are results for 46 molecules from patent publication US11286268B1, “EIF4E-inhibiting compounds and methods” (EFFECTOR THERAPEUTICS, INC., priority 2019, dated 2022).

SMILES strings stand for the structures. Like-named read-outs stand apart in the source and are kept apart here.

This assay concerns the target recombinant eIF4E (Homo sapiens (Human), UniProt P06730). Briefly: Fluorescence polarization competition assay for eIF4E binding potency. Put shortly: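 Competition of test compound against 20 nM EDA-m^7GDP-ATTO-550 for 75 nM recombinant eIF4E, pre-incubated 5 min, in 20 mM Tris pH 7.5, 100 mM NaCl, 1 mM DTT, 0.02% Tween-20, 1% DMSO. Equilibrated 30 min at room temperature, dark; fluorescence polarization read. IC50 from 8-point, 3-fold dilution series.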

Setting [1] is: fluorescence polarization competition, 75 nM recombinant eIF4E, 20 nM EDA-m7GDP-ATTO-550, IC50 class, read-out: elF4E FP.
Where [2] appears, read: inhibition of eIF4E/EDA-m7GDP-ATTO-550 binding by 50%, Table 4B calculated values, read-out: IC50.
[3] abbreviates: inhibition of eIF4E/EDA-m7GDP-ATTO-550 binding, calculated IC50 values, Table 4B, read-out: IC50.

recombinant eIF4E, sequence (P06730 whole entry): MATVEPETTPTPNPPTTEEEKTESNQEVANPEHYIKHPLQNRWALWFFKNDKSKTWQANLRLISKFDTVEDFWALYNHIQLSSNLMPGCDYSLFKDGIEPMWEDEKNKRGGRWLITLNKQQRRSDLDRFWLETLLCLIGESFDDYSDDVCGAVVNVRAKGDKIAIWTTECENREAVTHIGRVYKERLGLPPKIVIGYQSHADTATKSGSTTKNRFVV

Take `Cc1cc(-c2cc(Cl)ccc2OCCn2c(C)nc3cnc(CCF)c(C#N)c3c2=O)c2scc(C(=O)O)c2n1` [compound 1064]: the IC50 under setting [1] is less than 50 nM and the IC50 under setting [2] was 16.2 nM. The corresponding values for `N#Cc1cc2c(=O)n(CCCc3ccc(Cl)cc3-c3cccc(C(=O)O)c3)cnc2cn1` [compound 42] are greater than 1000 nM and 19800 nM. As for `Cc1cc(-c2cc(Cl)ccc2OCCn2c(C)nc3cc(C(F)(F)F)c(-c4ccncc4)c(C#N)c3c2=O)c2scc(C(=O)O)c2n1` [compound 629], the IC50 runs as follows: under setting [1], less than 50 nM; under setting [2], 6.39 nM. In the case of `Cc1nc2cnc(N3CCN(C4(C)CC4)CC3)c(C#N)c2c(=O)n1CCOc1ccc(Cl)cc1-c1ccnc2c(C(=O)O)csc12` [compound 1365], under setting [3], the IC50 was 34.1 nM.

Take `Cc1nc2cnc(N(C)C3CCN(CC(F)F)CC3)c(C#N)c2c(=O)n1CC#Cc1ccc(Cl)cc1-c1ccnc2c(C(=O)NS(=O)(=O)c3ccccn3)csc12` [compound 1566]: the IC50 under setting [3] was 4.39 nM. `CCc1cc(-c2cc(Cl)ccc2OCCn2c(C)nc3cc(C(F)(F)F)c(-c4cc(F)cnc4C)c(C#N)c3c2=O)c2scc(C(=O)O)c2n1` [compound 1017]: the IC50 under setting [1] was less than 50 nM and the IC50 under setting [2] was 8.26 nM. For the molecule `CC(C)(C)c1cc(C(=O)O)cc(-c2cc(Cl)ccc2OCCn2cnc3cnc(C#N)cc3c2=O)c1` [compound 105], the IC50 is greater than 1000 nM under setting [1] and greater than 3000 nM under setting [2]. Take `CCc1cc(-c2cc(Cl)ccc2OCCn2c(C)nc3cnc(C4CC4)c(C#N)c3c2=O)c2scc(C(=O)O)c2n1` [compound 793]: the IC50 by setting is: under setting [1], less than 50 nM; under setting [2], 4.81 nM. As to `Cc1nc2cnc(N(C)C3CCN(CC(F)(F)F)CC3)c(C#N)c2c(=O)n1CC#Cc1ccc(Cl)cc1-c1ccnc2c(C(=O)NS(=O)(=O)c3cscn3)csc12` [compound 1675], the IC50 under setting [3] is 4.11 nM. Consider `CCN(c1ncc2nc(C)n(CC#Cc3ccc(Cl)cc3-c3ccnc4c(C(=O)O)csc34)c(=O)c2c1C#N)C1CCN([C@H]2C[C@H](F)C2)CC1` [compound 1795], for which the IC50 under setting [3] was 8.96 nM. For `Cc1cc(-c2cc(Cl)ccc2OCCn2c(C)nc3cnc(N4CC(OC(F)F)C4)c(C#N)c3c2=O)c2scc(C(=O)O)c2n1` [compound 1041], the IC50 under setting [1] is less than 50 nM and the IC50 under setting [2] was 6.21 nM. With `Cc1nc2cnc(N(C)C3CCN([C@@H]4C[C@H]4C(F)(F)F)CC3)c(C#N)c2c(=O)n1CC#Cc1ccc(Cl)cc1-c1ccnc2c(C(=O)O)csc12` [compound 1175], the IC50 runs as follows: under setting [1], less than 50 nM; under setting [2], 22.1 nM. Regarding `Cc1nc2cnc(N3CC4(C3)CN(C3CCCC3)C4)c(C#N)c2c(=O)n1CCOc1ccc(Cl)cc1-c1ccnc2c(C(=O)O)csc12` [compound 1369], under setting [3], the IC50 is 13.2 nM. Regarding `Cc1cc(-c2cc(Cl)ccc2OCCn2c(C)nc3cc(Cl)c(C(F)F)c(C#N)c3c2=O)c2scc(C(=O)O)c2n1` [compound 586], the IC50 by setting is: under setting [1], less than 50 nM; under setting [2], 50 nM. As for `Cc1nc2cc(C(F)(F)F)c(N3CCN(C)CC3=O)c(C#N)c2c(=O)n1CC#Cc1ccc(Cl)cc1-c1ccnc2c(C(=O)O)csc12` [compound 1270], under setting [3], the IC50 is 39.9 nM.

Regarding `O=C(O)c1cccc(-c2cc(Cl)ccc2OCCn2cnc3cnccc3c2=O)c1` [compound 1992], the IC50 under setting [3] is 490 nM.

Regarding `Cc1nc2cc(C(F)(F)c3ccncc3)cc(C#N)c2c(=O)n1CCOc1ccc(Cl)cc1-c1ccnc2c(C(=O)O)csc12` [compound 216], the IC50 by setting is: under setting [1], 50 to 1000 nM; under setting [2], 62.8 nM.

For the molecule `Cc1cc(S(=O)(=O)NC(=O)c2csc3c(-c4cc(Cl)ccc4C#CCn4c(C)nc5cnc(N(C)C6CCN(CC(C)(F)F)CC6)c(C#N)c5c4=O)ccnc23)ccn1` [compound 1682], the IC50 under setting [3] was 15.1 nM. On to `Cc1cc(-c2cc(Cl)ccc2OCCn2c(C)nc3cc(Cl)c(N4CCC4(C)C)c(C#N)c3c2=O)c2scc(C(=O)O)c2n1` [compound 918], for which the IC50 runs as follows: under setting [1], less than 50 nM; under setting [2], 4.37 nM. On to `Cc1nc2cc(C(F)(F)F)c(N3CCN(C)CC3)c(C#N)c2c(=O)n1CCOc1ccc(Cl)cc1-c1ccc(F)c2c(C(=O)O)csc12` [compound 1214], for which the IC50 reads like this: under setting [1], less than 50 nM; under setting [3], 5.08 nM. For the molecule `Cc1nc2cc(C(F)(F)F)c(N3CCN(C)CC3)c(C#N)c2c(=O)n1CCOc1ccc(Cl)cc1-c1ccccc1` [compound 833], the IC50 by setting is: under setting [1], 50 to 1000 nM; under setting [2], 111 nM. For `CC(=O)c1nc2c(=O)n(CCOc3ccc(Cl)cc3-c3cc(C)nc4c(C(=O)O)csc34)c(C)nc2cc1C(F)(F)F` [compound 780], the IC50 by setting is: under setting [1], less than 50 nM; under setting [2], 9.6 nM.

On to `Cc1nc2cc(CN(C)C)c(C(F)(F)F)c(C#N)c2c(=O)n1CC#Cc1ccc(Cl)cc1-c1ccnc2c(C(=O)O)csc12` [compound 623], for which the IC50 reads like this: under setting [1], less than 50 nM; under setting [2], 4.77 nM. With `O=C(O)c1cccc(-c2cc(Cl)ccc2OCCn2cnc3ccccc3c2=O)c1` [compound 11], the IC50 is, setting by setting: under setting [1], greater than 1000 nM; under setting [2], 6850 nM. On to `Cc1cc(-c2cc(Cl)ccc2OCCn2c(C)nc3cnc(C4CCC4)c(C#N)c3c2=O)c2scc(C(=O)O)c2n1` [compound 912], for which the IC50 reads like this: under setting [1], less than 50 nM; under setting [2], 8.98 nM. As for `Cc1cc(C)nc(-c2c(C(F)(F)F)cc3nc(C)n(CCOc4ccc(Cl)cc4-c4cc(C)nc5c(C(=O)O)csc45)c(=O)c3c2C#N)n1` [compound 965], the IC50 is, setting by setting: under setting [1], 50 to 1000 nM; under setting [2], 118 nM.

Turning to `N#Cc1cc2c(=O)n(CCOc3ccc(Cl)cc3-c3cc4c(c(C(=O)O)c3)OCC4)cnc2cn1` [compound 104], the IC50 is 50 to 1000 nM under setting [1] and 586 nM under setting [2].

On to `Cc1nc(N2CCN(C)C3CC32)c(C#N)c2c(=O)n(CCOc3ccc(Cl)cc3-c3ccnc4c(C(=O)O)csc34)c(C)nc12` (centres unmarked) [compound 603], for which the IC50 is less than 50 nM under setting [1] and 11.7 nM under setting [2]. In the case of `Cc1cc(-c2cc(Cl)ccc2OCCn2c(C)nc3cnc(N[N+](C)(C)C)c(C#N)c3c2=O)c2scc(C(=O)O)c2n1` [compound 1631], under setting [3], the IC50 was 16.1 nM. With `Cc1nc2cc(C(F)(F)F)cc(C#N)c2c(=O)n1CCOc1cc(F)c(Cl)cc1-c1ccnc2c(C(=O)O)csc12` [compound 1903], the IC50 under setting [3] was 29.8 nM. Regarding `N#Cc1cc(C(F)(F)F)cc2nc(O)n(CCOc3ccc(Cl)cc3-c3cccc(C(=O)O)c3)c(=O)c12` [compound 186], the IC50 runs as follows: under setting [1], 50 to 1000 nM; under setting [2], 344 nM. On to `CNc1c(Cl)cc2nc(C)n(CCOc3ccc(Cl)cc3-c3cc(C)nc4c(C(=O)O)csc34)c(=O)c2c1C#N` [compound 694], for which the IC50 is, setting by setting: under setting [1], less than 50 nM; under setting [2], 19.1 nM. Take `Cc1cc(-c2cc(Cl)ccc2OCCn2c(C)nc3cc(C(F)(F)F)c(C4=CCN(C)CC4)c(C#N)c3c2=O)c2scc(C(=O)O)c2n1` [compound 373]: the IC50 runs as follows: under setting [1], less than 50 nM; under setting [2], 6.43 nM. Turning to `CCc1cc(-c2cc(Cl)ccc2OCCn2c(C)nc3cc(C(F)(F)F)c(N4CCN(C)CC4)cc3c2=O)c2scc(C(=O)O)c2n1` [compound 1083], the IC50 is less than 50 nM under setting [1] and 44 nM under setting [2].

Turning to `Cc1nc2cnc(N(C)C3C[C@H]4C[C@@H]3CN4CC(C)(F)F)c(C#N)c2c(=O)n1CC#Cc1ccc(Cl)cc1-c1ccnc2c(C(=O)O)csc12` (some centres unmarked) [compound 1689], the IC50 under setting [3] was 22.2 nM. For the molecule `Cc1ncc(F)cc1-c1c(C(F)(F)F)cc2nc(C)n(CCOc3ccc(Cl)cc3-c3ccnc4c(C(=O)O)csc34)c(=O)c2c1C#N` [compound 847], the IC50 under setting [1] was less than 50 nM and the IC50 under setting [2] was 44 nM. The corresponding values for `Cc1nc2c(C(F)(F)F)ccc(C#N)c2c(=O)n1CCOc1ccc(Cl)cc1-c1ccnc2c(C(=O)O)csc12` [compound 358] are 50 to 1000 nM and 86.3 nM. Regarding `Cc1cc(-c2cc(Cl)ccc2OCCn2c(C)nc3cc(Cl)c(Nc4cccnc4)c(C#N)c3c2=O)c2scc(C(=O)O)c2n1` [compound 700], the IC50 was less than 50 nM under setting [1] and 22.4 nM under setting [2]. The like results for `O=C(O)c1cccc(-c2cc(Cl)ccc2OCCn2ccc3ccccc3c2=O)c1` [compound 9] were, in that order, greater than 1000 nM and greater than 30000 nM. Consider `Cc1cc(-c2cc(Cl)ccc2OCCn2c(C)nc3cc(C(F)(F)F)c(CC4CCN(C)CC4=O)c(C#N)c3c2=O)c2scc(C(=O)O)c2n1` (centres unmarked) [compound 1908], for which the IC50 under setting [3] is 5.17 nM. Turning to `Cc1cc(-c2cc(Cl)ccc2OCCn2c(C)nc3cc(OC(F)F)c(CCN(C)C)c(C#N)c3c2=O)c2scc(C(=O)O)c2n1` [compound 592], the IC50 by setting is: under setting [1], less than 50 nM; under setting [2], 10.3 nM. Turning to `Cc1cc(-c2cc(Cl)ccc2OCCn2c(C)nc3cc(C(F)(F)F)c(-c4cnc(C(F)F)cn4)c(C#N)c3c2=O)c2scc(C(=O)O)c2n1` [compound 1025], the IC50 is, setting by setting: under setting [1], less than 50 nM; under setting [2], 30 nM. As for `Cc1cc(-c2cc(Cl)ccc2OCCn2c(C)nc3cnc(N4[C@@H]5C[C@H]4CN(C)C5)c(C#N)c3c2=O)c2sc(C)c(C(=O)O)c2n1` [compound 1203], the IC50 is less than 50 nM under setting [1] and 9.15 nM under setting [3]. `CCOc1ncc2nc(C)n(CCOc3ccc(Cl)cc3-c3cc(C)nc4c(C(=O)O)csc34)c(=O)c2c1C#N` [compound 1067]: the IC50 under setting [1] is less than 50 nM and the IC50 under setting [2] is 10.5 nM. With `Cc1cc(-c2cc(Cl)ccc2OCCn2c(C)nc3cc(C(F)(F)F)c(C4CN(C)C4)c(C#N)c3c2=O)c2scc(C(=O)O)c2n1` [compound 652], the IC50 by setting is: under setting [1], less than 50 nM; under setting [2], 6.68 nM.

Regarding `Cc1cc(-c2cc(Cl)ccc2C#CCn2c(C)nc3cnc(C#N)cc3c2=O)c2scc(C(=O)O)c2n1` [compound 599], the IC50 reads like this: under setting [1], 50 to 1000 nM; under setting [2], 61.6 nM.
